# Measured values published in patent US20060276537A1, “Use of ladostigil for the treatment of multiple sclerosis” (priority 2005, published 2006).
# Where two headings read alike, the source gives them in different places.
# What was measured:
# [1] = target: T1, butyrylcholinesterase (BChE) (Mus musculus, UniProt Q03311); experiment: Cholinesterase assay (modified Ellman, BTC substrate) in brain and blood of treated EAE mice; type: in vivo; details: for Brain BuChE U/g: results on the limit of assay sensitivity; for inhibition at 10.2 mg/kg / inhibition at 25.5 mg/kg / inhibition at 51 mg/kg / inhibition at 70.1 mg/kg: mouse
# T1 construct: Homogenate of 100 mg brain tissue in 1 ml 100 mM phosphate buffer pH=8.0 was prepared; from tissue; host or cells: brain homogenate and blood hemolysate of ladostigil-treated EAE mice
# Description: From the mice of Example 2, acetylcholinesterase (AChE) and butyrylcholinesterase (BChE) activities were determined by a modification of Ellman's spectophotometric method using acetyltiocholine (ATC) and butyryltiocholine (BTC) as substrates.
# Homogenate of 100 mg brain tissue in 1 ml 100 mM phosphate buffer pH=8.0 was prepared. 0.4 ml of crude homogenate was added to 1.2 ml pre-warmed 4 mM 5,5′-Dithiobis(2-nitrobenzoic acid) (DTNB or Ellman's reagant); 30 μl from this mixture were added to 210 μl pre-warmed (28° C.) 50 mM phosphate buffer in a microplate; and the reaction was started by addition of 10 μl ATC or BTC (final concentration=1 mM) or water (for the blank reaction) The increase in optical density (OD) at 412 nm was monitored for 3 minutes and the slope of the straight line obtained by linear regression provided the activity in terms of ΔOD/min using SOFTMAX® software. Blank reaction was subtracted.
# Conversion of ΔOD/min into Enzyme Activity was Performed as Follows: Unit enzyme/gram tissue=OD/min*0.25/10.54*4*1000/30*11
# The same procedure was performed as with brain homogenate using 50 μl of ¼ hemolysate/DTNB mixture.
# Enzyme activity in the blood was calculated in units/1 ml whole blood.
# BuChE activity was calculated directly from the ΔOD/min of BTC.
# [2] = tested on: chronic progressive EAE induced by pMOG35-55 in C57BL/6 mice; experiment: MOG-induced chronic progressive EAE in C57BL/6 mice, clinical scoring; type: in vivo; details: gavage once daily from day 0; for % Inhibition: vs control group mean score
# Description: MOG (Myelin oligodendrocyte glycoprotein) is a member of the immunoglobulin superfamily expressed exclusively in CNS myelin. It is one of the most encephalitogenic proteins and is widely used to induce EAE in different rodent strains. In C57BL/6 mice, immunization with the MOG peptide pMOG35-55 in CFA induces chronic progressive EAE. Ladostigil was tested in this model in order to assess its ability to inhibit the disease.
# EAE was induced by subcutaneous injection of encephalitogenic emulsion at a volume of 0.2 ml/mouse in the right flank. On the day of induction, pertussis toxin was injected intraperitoneally at a volume dose of 0.2 ml/mouse. The injection of the pertussis toxin was repeated after 48 hours. At the end of the experiment, 6-7 brains from control and the ladostigil groups were dissected and frozen at −70° C. for CHE (cholinesterase) determination and 6-7 brains were dissected and frozen for MAO (monoamine oxidase) determination. Before sacrifice, blood for ChE determination was taken on heparine, hemolysed 1/20 in 10 mM cold phosphate buffer pH=6.0 and stored at −70° C. until the assay.
# 90 female C57Bl/6 mice 8-10 weeks old obtained from Harlan animal breeding center were used in the study. Mice were allocated randomly into 6 groups:
# Both compounds were administered by gavage once daily during the whole experiment (30 days) at a volume of 0.2 ml/mouse.
# The mice were observed daily from the 10th day post-EAE induction and the EAE clinical signs were scored. The scores were recorded on observation cards according to the grades described in Table 5:
# The number of sick animals (animals with a score of ≧1 at any point) in each group was summed.
# The incidence of disease and the % activity were calculated as follows: [formula] [formula] [formula]
# The maximal scores of all mice in each group were summed.
# The mean maximal score and the % activity of the group were calculated as follows: [formula] [formula] [formula]
# The individual scores (IMS) of each of the mice during the observation period were summed (score 6 will be counted forward).
# The GMS of the group and its % activity were calculated as follows: [formula] [formula] [formula]
# Their dates of onset were calculated as day of termination +1.
# T1 sequence (Q03311 30-603): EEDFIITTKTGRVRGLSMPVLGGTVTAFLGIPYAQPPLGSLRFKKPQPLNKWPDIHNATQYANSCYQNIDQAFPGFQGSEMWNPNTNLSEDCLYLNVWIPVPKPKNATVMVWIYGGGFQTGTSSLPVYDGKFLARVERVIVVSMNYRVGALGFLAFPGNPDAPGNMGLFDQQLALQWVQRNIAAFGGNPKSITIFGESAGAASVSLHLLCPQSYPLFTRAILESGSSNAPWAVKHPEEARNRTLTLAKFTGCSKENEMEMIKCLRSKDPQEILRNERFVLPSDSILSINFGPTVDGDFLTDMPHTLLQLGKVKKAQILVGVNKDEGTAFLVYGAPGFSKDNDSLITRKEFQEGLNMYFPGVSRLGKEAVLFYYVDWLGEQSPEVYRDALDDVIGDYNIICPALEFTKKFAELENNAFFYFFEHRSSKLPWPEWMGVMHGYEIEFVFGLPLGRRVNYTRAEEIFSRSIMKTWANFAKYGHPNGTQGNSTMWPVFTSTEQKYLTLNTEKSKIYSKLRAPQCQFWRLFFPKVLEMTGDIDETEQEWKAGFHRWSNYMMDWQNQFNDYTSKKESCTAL
smiles,measurement,setting,value
"C#CCN[C@@H]1CCc2ccc(OC(=O)N(C)CC)cc21 [Ladostigil, R(+)-6-(N-methyl,N-ethyl-carbamoyloxy)-N′-propargyl-1-aminoindan]",BChE inhibition,"[1]; 51 and 70.1 mg/kg/day, brain and blood",35-42%
same,Blood BuChE U/ml,"[1]; blood of EAE mice, 10.2 mg/kg salt",1.52 +/− 0.24 U/ml
same,Blood BuChE U/ml,"[1]; blood of EAE mice, 25.5 mg/kg salt",1.47 +/− 0.18 U/ml
same,Blood BuChE U/ml,"[1]; blood of EAE mice, 51 mg/kg salt",1.06 +/− 0.21 U/ml
same,Blood BuChE U/ml,"[1]; blood of EAE mice, 70.1 mg/kg salt",1.01 +/− 0.18 U/ml
same,Brain BuChE U/g,"[1]; brain of EAE mice, 10.2 mg/kg salt",0.35 +/− 0.04 U/g
same,Brain BuChE U/g,"[1]; brain of EAE mice, 25.5 mg/kg salt",0.31 +/− 0.04 U/g
same,Brain BuChE U/g,"[1]; brain of EAE mice, 51 mg/kg salt",0.22 +/− 0.03 U/g
same,Brain BuChE U/g,"[1]; brain of EAE mice, 70.1 mg/kg salt",0.25 +/− 0.06 U/g
same,inhibition at 10.2 mg/kg,"[1]; blood of EAE mice, 10.2 mg/kg salt, read-out: Blood BchE % inhibition",6.7%
same,inhibition at 25.5 mg/kg,"[1]; blood of EAE mice, 25.5 mg/kg salt, read-out: Blood BchE % inhibition",10.1%
same,inhibition at 51 mg/kg,"[1]; blood of EAE mice, 51 mg/kg salt, read-out: Blood BchE % inhibition",35.3%
same,inhibition at 70.1 mg/kg,"[1]; blood of EAE mice, 70.1 mg/kg salt, read-out: Blood BchE % inhibition",38.4%
same,inhibition at 10.2 mg/kg,"[1]; brain of EAE mice, 10.2 mg/kg salt, read-out: Brain BchE % inhibition",7.9%
same,inhibition at 25.5 mg/kg,"[1]; brain of EAE mice, 25.5 mg/kg salt, read-out: Brain BchE % inhibition",18.4%
same,inhibition at 51 mg/kg,"[1]; brain of EAE mice, 51 mg/kg salt, read-out: Brain BchE % inhibition",42.1%
same,inhibition at 70.1 mg/kg,"[1]; brain of EAE mice, 70.1 mg/kg salt, read-out: Brain BchE % inhibition",34.2%
same,Group Mean Score,[2]; ladostigil salt 10.2 mg/kg,2.75 ± 1.3
same,Incidence,[2]; ladostigil salt 10.2 mg/kg,15/15
same,Mean Maximal Score,[2]; ladostigil salt 10.2 mg/kg,4.33 ± 1.1
same,Mean Onset,[2]; ladostigil salt 10.2 mg/kg,12.0 ± 2.4 days
same,Mortality,[2]; ladostigil salt 10.2 mg/kg,2/15
same,% Inhibition,[2]; ladostigil salt 10.2 mg/kg,9.5%
same,Group Mean Score,[2]; ladostigil salt 25.5 mg/kg,3.08 ± 1.4
same,Incidence,[2]; ladostigil salt 25.5 mg/kg,15/15
same,Mean Disease Duration,[2]; ladostigil salt 25.5 mg/kg,35.3 ± 8.8 days
same,Mean Maximal Score,[2]; ladostigil salt 25.5 mg/kg,4.33 ± 1.0
same,Mean Onset,[2]; ladostigil salt 25.5 mg/kg,11.6 ± 2.1 days
same,Mortality,[2]; ladostigil salt 25.5 mg/kg,3/15
same,% Inhibition,[2]; ladostigil salt 25.5 mg/kg,−1.3%
same,Group Mean Score,[2]; ladostigil salt 51 mg/kg,2.26 ± 1.1
same,Incidence,[2]; ladostigil salt 51 mg/kg,15/15
same,Mean Disease Duration,[2]; ladostigil salt 51 mg/kg,31.3 ± 13.2 days
same,Mean Maximal Score,[2]; ladostigil salt 51 mg/kg,3.83 ± 1.1
same,Mean Onset,[2]; ladostigil salt 51 mg/kg,11.4 ± 3.1 days
same,Mortality,[2]; ladostigil salt 51 mg/kg,1/15
same,% Inhibition,[2]; ladostigil salt 51 mg/kg,25.7%
same,Incidence,[2]; ladostigil salt 70.1 mg/kg,15/15
same,Mean Maximal Score,[2]; ladostigil salt 70.1 mg/kg,3.73 ± 1.0
same,Mean Onset,[2]; ladostigil salt 70.1 mg/kg,11.6 ± 2.3 days
same,Mortality,[2]; ladostigil salt 70.1 mg/kg,1/15
same,% Inhibition,[2]; ladostigil salt 70.1 mg/kg,33.2%
